Active and inactive are the calls of the source. The rule behind the calls is not given here.
Assays:
Cryptococcus neoformans = assay: Antifungal activity against Cryptococcus neoformans ATCC 90112 after 48 to 72 hrs by broth microdilution method; format: functional; settings: Cryptococcus neoformans, ATCC 90112; read-out: MIC
Candida albicans = assay: Antifungal activity against Candida albicans ATCC 10231 after 48 to 72 hrs by broth microdilution method; format: functional; settings: Candida albicans, ATCC 10231; read-out: MIC
[1] = Cytotoxicity against human erythrocytes assessed as hemolysis after 1 hr; format: cell-based, Erythrocyte
A549 = assay: Cytotoxicity against human A549 cells after 3 hrs by MTS assay; format: cell-based; settings: A549, 3 h
MDCK = assay: Cytotoxicity against MDCK cells after 3 hrs by MTS assay; format: cell-based; settings: Canis lupus familiaris
[2] = molecular target: Phospholipase A2, major isoenzyme (Sus scrofa, UniProt P00592); assay: Inhibition of porcine pancreatic PLA2 after 1 hr by radiometric method
[3] = Inhibition of phospholipid fatty acyl chain hydrolysis activity of Cryptococcus neoformans var. grubii H99 PLB assessed as formation of radiolabeled free fatty acid at pH 4 by radiometric assay
[4] = system: Cryptococcus neoformans var. grubii H99; assay: Inhibition of lysophospholipid fatty acyl chain hydrolysis activity of Cryptococcus neoformans var. grubii H99 PLB assessed as formation of radiolabeled free fatty acid at 0.25 to 250 uM at pH 4 by radiometric assay
[5] = system: Cryptococcus neoformans var. grubii H99; assay: Inhibition of lysophospholipase acyltransferase activity of Cryptococcus neoformans var. grubii H99 PLB assessed as formation of radiolabeled dipalmitoyl phosphatidylcholine at 0.25 to 250 uM at pH 4 by radiometric assay
[6] = Solubility at 50 uM; format: physicochemical

Sequence of Phospholipase A2, major isoenzyme (P00592 whole entry): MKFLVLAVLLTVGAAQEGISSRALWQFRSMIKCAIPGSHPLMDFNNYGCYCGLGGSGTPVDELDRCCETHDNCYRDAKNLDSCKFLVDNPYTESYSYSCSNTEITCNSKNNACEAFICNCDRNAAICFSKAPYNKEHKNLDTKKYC

Row | Structure (SMILES) | MIC (Cryptococcus neoformans) | MIC (Candida albicans) | IC50 [2] | IC50 [3] | Activity [4] | Activity [5] | HC50 at 1 h [1] | IC50 (A549) | IC50 (MDCK) | solubility [6]
1 | CCCCC(CCCC)c1cc[n+](CCCCCCCCCCCC[n+]2ccc(C(CCCC)CCCC)c(C)c2)cc1C | 2.7 µM | 2.7 µM | – | – | – | – | 31 µM | 10 µM | 10 µM | –
2 | CCCc1cc[n+](CCCCCCCCCCCC[n+]2ccc(CCC)cc2)cc1 | 44 µM | 11 µM | – | – | – | – | – | – | – | –
3 | c1ccc(Cc2cc[n+](CCCCCCCCCCCC[n+]3ccc(Cc4ccccc4)cc3)cc2)cc1 | 22 µM | 11 µM | – | – | – | – | – | – | – | –
4 | CCCCCc1cccc[n+]1CCCCCCCCCCCC[n+]1ccccc1CCCCC | 2.7 µM | 2.7 µM | – | – | – | – | > 350 µM | > 350 µM | 315 µM | –
5 | CCc1ccc[n+](CCCCCCCCCCCC[n+]2cccc(CC)c2)c1 | 88 µM | 44 µM | – | – | – | – | – | – | – | –
6 | CCCCCc1cc[n+](CCCCCCCCCCCC[n+]2ccc(CCCCC)c(C)c2)cc1C | 1.4 µM | 2.7 µM | 134 µM | 8 µM | inactive | inactive | > 350 µM | 122 µM | 145 µM | –
7 | CN1CCC[C@H]1c1ccc[n+](CCCCCCCCCCCC[n+]2cccc([C@@H]3CCCN3C)c2)c1.[Br-].[Br-] | > 50 µM | > 50 µM | – | – | – | – | – | – | – | Insoluble
8 | CCCCCc1ccc[n+](CCCCCCCCCCCC[n+]2cccc(CCCCC)c2)c1 | 11 µM | 5.5 µM | – | – | – | – | > 350 µM | – | – | –

More lines, main results first:

Row | MIC (Cryptococcus neoformans) | MIC (Candida albicans) | IC50 [2] | IC50 [3] | Activity [4] | Activity [5] | Structure (SMILES) | HC50 at 1 h [1] | IC50 (A549) | IC50 (MDCK) | solubility [6]
9 | 2.7 µM | 1.4 µM | > 250 µM | 6 µM | inactive | inactive | CCCCCCc1cc[n+](CCCCCCCCCCCC[n+]2ccc(CCCCCC)cc2)cc1 | 129 µM | 48 µM | 61 µM | –
10 | 11 µM | 22 µM | > 250 µM | 34 µM | inactive | inactive | CC(C)(C)c1cc[n+](CCCCCCCCCCCC[n+]2ccc(C(C)(C)C)cc2)cc1 | > 350 µM | > 350 µM | > 350 µM | –
11 | – | – | – | – | inactive | inactive | CCCCCc1cc[n+](CCCCCCCCCCCC[n+]2ccc(CCCCC)cc2)cc1 [listing 1 of 2 here] | – | – | – | –
12 | 2.7 µM | 2.7 µM | > 250 µM | 11 µM | inactive | inactive | CC(C)CCCc1cc[n+](CCCCCCCCCCCC[n+]2ccc(CCCC(C)C)cc2)cc1 | 227 µM | 54 µM | 62 µM | –
13 | 88 µM | 88 µM | > 250 µM | > 250 µM | inactive | inactive | OCCCc1cc[n+](CCCCCCCCCCCC[n+]2ccc(CCCO)cc2)cc1 | > 350 µM | > 350 µM | > 350 µM | –
14 | 1.4 µM | 2.7 µM | – | – | – | – | CCCCCc1cc[n+](CCCCCCCCCCCC[n+]2ccc(CCCCC)cc2)cc1 [listing 2 of 2 here] | – | – | – | –

Reference: ChEMBL document CHEMBL1152529, “Synthesis, antifungal, haemolytic and cytotoxic activities of a series of bis(alkylpyridinium)alkanes” (Bioorg Med Chem, 2009)
